In brackets after ≈: the same amount, converted by molar mass. Where two headings read alike, the source gives them in different places.
Tests used:
[1] = target: T1, WT E. coli gyrase (Escherichia coli, UniProt P0AES4+P0AES6); test: biochemical; type: biochemical; details: for % maximal cleavage: GyraseWT, average of 3 independent assays; for EC50: Gyrase^WT, mean ± s.d. of triplicate, read-out: CC50 (the source's name)
T1 construct: alternative cryo-EM approach involving full-length E. coli gyrase; 10-His (cleaved yes); Twin-Strep (cleaved yes); made in house
T1 sequence (P0AES4 whole entry, one chain of several): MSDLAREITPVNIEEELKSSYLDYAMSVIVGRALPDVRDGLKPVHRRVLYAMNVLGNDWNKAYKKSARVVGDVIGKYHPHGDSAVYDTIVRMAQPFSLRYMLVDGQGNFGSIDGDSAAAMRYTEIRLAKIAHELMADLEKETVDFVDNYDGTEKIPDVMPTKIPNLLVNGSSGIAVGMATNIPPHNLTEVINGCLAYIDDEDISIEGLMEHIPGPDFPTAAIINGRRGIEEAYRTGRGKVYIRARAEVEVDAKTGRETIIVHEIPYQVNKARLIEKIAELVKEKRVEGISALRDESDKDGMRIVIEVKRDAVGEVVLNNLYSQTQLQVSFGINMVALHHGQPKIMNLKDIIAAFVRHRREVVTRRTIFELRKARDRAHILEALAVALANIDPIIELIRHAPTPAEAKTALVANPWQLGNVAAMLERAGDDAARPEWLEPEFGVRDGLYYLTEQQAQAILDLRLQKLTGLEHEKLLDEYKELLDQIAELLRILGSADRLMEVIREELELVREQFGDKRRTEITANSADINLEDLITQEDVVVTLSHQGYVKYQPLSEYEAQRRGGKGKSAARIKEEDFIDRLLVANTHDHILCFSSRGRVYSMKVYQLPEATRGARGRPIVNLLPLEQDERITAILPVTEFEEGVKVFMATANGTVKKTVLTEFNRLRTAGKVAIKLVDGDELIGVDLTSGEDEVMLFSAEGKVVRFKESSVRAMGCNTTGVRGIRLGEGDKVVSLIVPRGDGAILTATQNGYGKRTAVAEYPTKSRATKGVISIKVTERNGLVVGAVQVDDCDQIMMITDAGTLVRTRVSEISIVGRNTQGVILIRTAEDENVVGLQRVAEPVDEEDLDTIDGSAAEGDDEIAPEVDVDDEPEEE
Procedure: For DNA gyrase supercoiling assays to characterize gyrase mutants, 15 µl reactions were set up containing 250 ng of relaxed DNA, E. coli gyrase supercoiling buffer (35 mM Tris–Cl pH 7.5, 24 mM KCl, 4 mM MgCl2, 2 mM DTT, 1.8 mM spermidine, 1 mM ATP, 6.0% (w/v) glycerol, and 0.1 mg ml^−1 BSA), gyrase subunits and inhibitors. Concentrations of enzyme and inhibitor are stated in the figure legends. Inhibitors were diluted in the following way to reduce the chance of precipitation: stock compound in 100% DMSO was diluted to 5 mM in 100% DMSO. This compound solution was diluted to 1 mM by stepwise addition of 1 µl of 50% DMSO with thorough mixing via pipetting after each addition. All subsequent dilutions up to 100 µM were performed in the same way using H2O. After this point, compounds were stable and could be diluted in the normal way. Reactions were incubated at 37 °C for 30 min before stopping with 15 µl chloroform:isoamyl alcohol (24:1 v/v) and 15 µl of STEB (40% (w/v) sucrose, 100 mM Tris–Cl pH 8, 10 mM EDTA, 0.5 mg ml^−1 bromophenol blue).
Cleavage assays were set up in the same way as supercoiling assays with some modifications. The concentration of enzyme was increased 4-fold relative to the supercoiling assay and reactions were incubated for 1 h before addition of 0.2% SDS and proteinase K (0.2 mg ml^−1) and further incubation at 37 °C for 30 min to trap cleavage complexes. Reactions were stopped in the same way as supercoiling assays.
(§1) Results were visualized by agarose gel electrophoresis: 1% agarose Tris-acetate-EDTA (TAE) gels were run without ethidium bromide (supercoiling) or with 10 µg ml^−1 ethidium bromide (cleavage) at 8 V cm^−1.
DNA cleavage gels were analysed using densitometry (ImageJ). Experiments were carried out in triplicate and expressed as mean ± s.d. Curves were fitted using OriginPro 2021 (Origin Lab) according to a modified Hill equation:1 y=cI+(cF−cI)[…]/(k^n+x^n) where y is the percentage of cleaved DNA, cI is the initial cleavage, cF is the final cleavage, k is the CC50 (the concentration of inhibitor that results in cleavage of 50% of DNA), n is a slope factor and x is the inhibitor concentration.

[2] = target: E. coli Topo IV (Escherichia coli, UniProt P0AFI2+P20083); test: Topo IV cleavage assay (cleavage complex stabilization); type: biochemical; details: for stabilization of the cleavage complex with Topo IV: in words
Sequence of E. coli Topo IV (P0AFI2 whole entry): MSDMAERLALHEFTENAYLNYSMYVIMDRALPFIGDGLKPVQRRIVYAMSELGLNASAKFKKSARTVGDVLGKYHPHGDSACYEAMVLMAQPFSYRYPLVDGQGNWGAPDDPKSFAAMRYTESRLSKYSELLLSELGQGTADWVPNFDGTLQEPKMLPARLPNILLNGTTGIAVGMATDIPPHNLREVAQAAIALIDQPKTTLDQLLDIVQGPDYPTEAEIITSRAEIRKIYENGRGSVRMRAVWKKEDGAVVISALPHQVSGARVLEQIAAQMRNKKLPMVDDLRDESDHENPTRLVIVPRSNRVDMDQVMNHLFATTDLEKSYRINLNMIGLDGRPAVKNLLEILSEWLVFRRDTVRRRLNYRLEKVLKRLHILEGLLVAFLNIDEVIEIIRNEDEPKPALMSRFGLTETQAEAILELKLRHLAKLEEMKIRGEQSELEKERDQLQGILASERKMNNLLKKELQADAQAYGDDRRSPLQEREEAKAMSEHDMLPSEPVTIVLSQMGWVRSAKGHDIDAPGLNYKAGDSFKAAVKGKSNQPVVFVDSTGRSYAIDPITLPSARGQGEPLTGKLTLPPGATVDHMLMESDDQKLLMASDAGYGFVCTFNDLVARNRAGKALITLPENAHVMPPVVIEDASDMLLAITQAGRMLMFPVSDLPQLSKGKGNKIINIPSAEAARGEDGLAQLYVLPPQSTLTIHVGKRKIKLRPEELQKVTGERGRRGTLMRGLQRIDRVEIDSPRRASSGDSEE
Sequence of E. coli Topo IV (P20083 whole entry): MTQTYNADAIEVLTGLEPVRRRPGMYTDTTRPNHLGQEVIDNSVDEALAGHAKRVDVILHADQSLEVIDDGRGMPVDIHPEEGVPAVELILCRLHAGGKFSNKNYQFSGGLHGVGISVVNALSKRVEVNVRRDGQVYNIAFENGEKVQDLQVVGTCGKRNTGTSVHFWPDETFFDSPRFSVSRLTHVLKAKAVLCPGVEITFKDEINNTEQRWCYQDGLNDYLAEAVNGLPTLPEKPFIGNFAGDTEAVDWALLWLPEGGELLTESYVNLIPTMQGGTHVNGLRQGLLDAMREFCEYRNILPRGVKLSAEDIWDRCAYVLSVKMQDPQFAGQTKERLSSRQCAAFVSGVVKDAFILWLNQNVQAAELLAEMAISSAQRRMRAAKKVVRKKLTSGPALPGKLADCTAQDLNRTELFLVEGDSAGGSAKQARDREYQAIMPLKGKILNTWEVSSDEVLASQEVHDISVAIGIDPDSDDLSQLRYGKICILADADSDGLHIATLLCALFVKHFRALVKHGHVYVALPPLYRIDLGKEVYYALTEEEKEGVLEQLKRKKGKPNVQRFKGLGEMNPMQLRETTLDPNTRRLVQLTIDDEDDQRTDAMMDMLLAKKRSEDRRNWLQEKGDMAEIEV
Procedure: Topo IV cleavage assays were set up in the same way as relaxation assays with some modifications. The concentration of enzyme was increased by 20% and cleavage complexes were trapped by the addition of 0.2% SDS and proteinase K (0.2 mg ml^−1) and further incubation at 37 °C for 30 min. Reactions were stopped in the same way as supercoiling assays.
as §1
Supplementary Figure 11. Activity of albicidin and Albi-1/2/3 on E. coli […]
Cleavage activity of E. coli topo IV in the presence of albicidin, Albi-1, Albi-2 and Albi-3. First lane: negatively supercoiled pBR322; second lane: innate cleavage activity of E. coli topo IV (15 nM); third lane: effect of 20 µM CFX; subsequent lanes: effect of increasing compound concentration (0.1, 1, 10, 100 µM). […]
concentration. All experiments were carried out in triplicates and representative gels […]
(1 picture or pasted object on this page, not shown here)

[3] = tested on: E. coli BW25113; test: MIC determination (microdilution, M07-A9); type: cell-based
Procedure: (§2) MIC values were determined according to the ninth edition of the Approved Standard M07-A9. The test was carried out for six different bacterial strains (E. coli DSM 1116 (Gram-negative), E. coli BW25113 (Gram-negative), B. subtilis DSM 10 (Gram-positive), M. luteus DSM 1790 (Gram-positive), M. phlei DSM 750 (Gram-positive), S. typhimurium TA 100 (Gram-negative). First, 20 µl of glycerol stock of each strain was inoculated in 20 ml LB (Lennox) followed by incubation overnight at 37 °C, 200 r.p.m. The test inoculum was adjusted by the 0.5 McFarland Standard. Within 15 min of preparation, the adjusted inoculum suspension was diluted in MHBII so that each well contained approximately 5 × 10^5 c.f.u. ml^−1 in a final volume of 100 µl. Then, 95 µl of the inoculum was applied per well and 5 µl of the (diluted) albicidins was added. For dilutions, the dry powders were dissolved in dimethylsulfoxide (DMSO) with a concentration of 2.56 mg ml^−1, and the obtained stock solutions were further diluted in DMSO. Next, 5 µl of each antibiotic dilution was applied to the microdilution tray to reach final concentrations of 8 to 0.016 µg ml^−1. One row of each well plate served as a growth control without antibiotic and another row of the microdilution tray served as a sterility control (only MHBII media). The antimicrobial effect of the solvent was tested by adding 5 µl DMSO to several wells. Purity check and cell titre control were performed according to International Standard M07-A9 on Mueller–Hinton II Agar. Both microdilution trays and agar plates were incubated at 37 °C for 20 h.

[4] = tested on: S. typhimurium TA100; test: MIC determination (microdilution, M07-A9); type: cell-based
Procedure: as §2

[5] = tested on: B. subtilis DSM10; test: MIC determination (microdilution, M07-A9); type: cell-based; details: Bacillus subtilis
Procedure: as §2

[6] = tested on: M. phlei DSM750; test: MIC determination (microdilution, M07-A9); type: cell-based; details: Mycolicibacterium phlei
Procedure: as §2

[7] = tested on: M. luteus DSM1790; test: MIC determination (microdilution, M07-A9); type: cell-based
Procedure: as §2

[8] = tested on: E. coli DSM116; test: MIC determination (microdilution, M07-A9); type: cell-based; details: Escherichia coli, DSM116, E. coli DSM116, read-out: MIC
Procedure: as §2

[9] = tested on: selected Gram-negative and Gram-positive microorganisms; test: MIC activity groups over all tested strains; type: cell-based; design: key: a: most potent; b: intermediate; least active; details: MIC panel
Procedure: as §2

[10] = E. coli BW25113, second value in cell (biological replicate)
[11] = Escherichia coli, E. coli BW25113, first value in cell (biological replicate), read-out: MIC
[12] = Salmonella enterica, first value in cell (biological replicate), read-out: MIC
[13] = second value in cell (biological replicate)
[14] = first value in cell (biological replicate)
[15] = Micrococcus luteus, first value in cell (biological replicate), read-out: MIC

| SMILES | % maximal cleavage [1] [%] | EC50 [1] [µM] | stabilization of the cleavage complex with Topo IV [2] | MIC [3, 10] | MIC [3, 11] [µg/mL] | MIC [4, 12] [µg/mL] | MIC [5, 14] [µg/mL] | MIC [5, 13] [µg/mL] | MIC [6, 14] [µg/mL] | MIC [6, 13] [µg/mL] | MIC [7, 15] [µg/mL] | MIC [7, 13] [µg/mL] | MIC [8, 14] [µg/mL] | MIC [8, 13] [µg/mL] | also measured |
| --- | --- | --- | --- | --- | --- | --- | --- | --- | --- | --- | --- | --- | --- | --- | --- |
| COc1c(NC(=O)c2ccc(NC(=O)c3ccc(NC(=O)[C@H](Cc4c[nH]nn4)NC(=O)c4ccc(NC(=O)c5ccc6nc(C)ccc6c5)cc4)cn3)c(OC)c2O)ccc(C(=O)O)c1O [Albi-3] | 66±4 | 0.025 ± 0.0053 | could stabilize the cleavage complex | <0.016 <0.016 µg ml^−1 | < 0.016 | < 0.016 | 0.063 (≈ 0.0704 µM) | 0.125 (≈ 0.14 µM) | 0.5 (≈ 0.559 µM) | 1 (≈ 1.12 µM) | 0.063 (≈ 0.0704 µM) | 0.063 (≈ 0.0704 µM) | < 0.016 | < 0.016 | % cleaved DNA Average ([1]; Albi-3 0.001 µM, WT Gyrase): 5.372%; % cleaved DNA Average ([1]; Albi-3 0.005 µM, WT Gyrase): 11.5375%; % cleaved DNA Average ([1]; Albi-3 0.01 µM, WT Gyrase): 23.6152%; % cleaved DNA Average ([1]; Albi-3 0.05 µM, WT Gyrase): 37.3347%; % cleaved DNA Average ([1]; Albi-3 0.1 µM, WT Gyrase): 57.4394%; % cleaved DNA Average ([1]; Albi-3 0.5 µM, WT Gyrase): 62.8438%; % cleaved DNA Average ([1]; Albi-3 1 µM, WT Gyrase): 66.0682%; % cleaved DNA Average ([1]; Albi-3 5 µM, WT Gyrase): 61.2004%; % cleaved DNA Average ([1]; Albi-3 10 µM, WT Gyrase): 61.7202%; MIC ([3]; Escherichia coli, BW25113, E. coli strain not named, read-out: MIC for E. coli): < 0.016 µg/mL; MIC [4, 13]: <0.016 <0.016 µg ml^−1 |
| COc1c(NC(=O)c2ccc(NC(=O)c3ccc(NC(=O)[C@H](CC#N)NC(=O)c4ccc(NC(=O)/C(C)=C/c5ccc(O)cc5)cc4)cc3)c(OC)c2O)ccc(C(=O)O)c1O [Albicidin] | 81±2 | 0.046 ± 0.0037 | could stabilize the cleavage complex | 0.063 µg/mL (≈ 0.0747 µM) | 0.063 (≈ 0.0747 µM) | 0.063 (≈ 0.0747 µM) | < 0.25 | 0.25 (≈ 0.297 µM) | 2 (≈ 2.37 µM) | 2 (≈ 2.37 µM) | 1 (≈ 1.19 µM) | 1.0 (≈ 1.19 µM) | 0.063 (≈ 0.0747 µM) | 0.063 (≈ 0.0747 µM) | % cleaved DNA Average ([1]; albicidin 0.0005 µM, average of replicates): 3.748%; % cleaved DNA Average ([1]; albicidin 0.0025 µM, average of replicates): 5.277%; % cleaved DNA Average ([1]; albicidin 0.005 µM, average of replicates): 6.761%; % cleaved DNA Average ([1]; albicidin 0.01 µM, average of replicates): 11.8941%; % cleaved DNA Average ([1]; albicidin 0.025 µM, average of replicates): 24.028%; % cleaved DNA Average ([1]; albicidin 0.05 µM, average of replicates): 56.851%; % cleaved DNA Average ([1]; albicidin 0.1 µM, average of replicates): 62.7758%; % cleaved DNA Average ([1]; albicidin 0.25 µM, average of replicates): 75.7465%; % cleaved DNA Average ([1]; albicidin 0.5 µM, average of replicates): 79.6286%; % cleaved DNA Average ([1]; albicidin 1 µM, average of replicates): 76.3016%; % cleaved DNA Average ([1]; albicidin 10 µM, average of replicates): 81.3635%; activity group (superscript letter) [9]: Albicidin^a; concentration at which a linear DNA band could be observed ([2]; Topo IV cleavage complex stabilization, tested 0.1, 1, 10, 100 µM): 10 µM |

From PMC9886550, “Molecular mechanism of topoisomerase poisoning by the peptide antibiotic albicidin” (Nature Catalysis, 2023)
